From US20190282673A1, “STAPHTAME ACTIVITY ON BIOFILMS” (priority 2016, published 2019) come the findings set out here.

Where “and” joins values, the source holds several entries; their conditions need not be identical. Equal entries are not always repeated.

In experiment [1] the test system is S. epidermidis B9470 biofilms on catheters. As to the kind of experiment: Preformed biofilms on catheters, safranin staining and SEM. The class given is cell-based, Staphylococcus epidermidis. Particulars: 18 hrs; P128 8 μg/mL (1×MIC); vancomycin 30 μg/mL (30×MIC). As to the method: In order to simulate the in vivo conditions for biofilm formation in device associated infections, S. epidermidis B9470 was allowed to form biofilms on the surface of catheters. An overnight-grown culture was diluted 1:40 in TSB containing 4% sodium chloride. Catheter (JMS Infusion set) pieces of 1-2 cm size were cut, slit into two halves and added to the culture. The cultures with catheter pieces were incubated at 37° C. with shaking at 100 rpm for 42 h. Post incubation, the catheters were removed and rinsed twice in PBS to remove the adhering planktonic cells. The biofilms on catheters were challenged with 8 μg/mL of P128 or 30 μg/mL of vancomycin by transferring the catheter pieces into tubes containing the drugs. The tubes were incubated at 37° C. under static conditions for 18 hrs. The catheters were then removed from the tubes, rinsed once in PBS, and immersed in 0.1% safranin [a dye that stains cell wall of bacteria] for 5 min. The stained catheters were washed once in PBS and allowed to dry. After drying, samples were fixed on aluminum stubs with double sided carbon adhesive tape, coated with 5-7 nm thickness gold using a sputter-coating system (Quorum Technologies; Q150T) and examined by SEM (Carl Zeiss. Neon 40) for the presence of biofilm structures.

The subject of experiment [2] is S. aureus strains BK18 and B9377. As to the kind of experiment: Generation and confirmation of antibiotic persisters (CFU over time). To be noted: for CFU/mL, generation of persisters / CFU/mL, confirmation of persisters (regrown, re-exposed): Vancomycin 100X; for CFU/mL, generation of persisters: Daptomycin 50X MIC; for CFU/mL, confirmation of persisters (regrown, re-exposed): Daptomycin 50×. The format is cell-based, Staphylococcus aureus. As to the method: (§1) Persisters of S. aureus BK18 and B9377 and S. epidermidis strain B9470 were generated as per protocol described by Lechner, et al (Staphylococcus aureus persisters tolerant to bactericidal antibiotics. Lechner, et al. (2012) J Mol Microbiol Biotechnol; 22(4):235-44). Briefly, colonies were suspended in LB broth and allowed to grow at 37° C., 200 rpm for ˜2 hours. The cultures were pelleted, resuspended in MHB and OD600 was adjusted to 0.5 to 1.0 OD (˜2 to 5×10^8 CFU/mL). […] The test tubes were incubated at 37° C., 200 rpm, and 250 μL was sampled out at 4, 8, and 24 hr time points. This aliquot was pelleted, washed in saline and resuspended in equal volume of saline, diluted and plated on LB agar. Rapid decrease in CFUs, followed by rather stable values for up to 24 hrs, indicated the presence of Daptomycin/Vancomycin tolerant persisters.
(§2) After sampling for P128 and antibiotic activity, the rest of the sample was pelleted, washed in saline and resuspended into fresh media (LB). Allowed to grow at 37° C., 200 rpm until it reaches 1 OD and then the same steps followed as done for generation of persisters. A biphasic growth curve similar to that obtained during generation of persisters would indicate the tolerance to be phenotypic and not genotypic.

The test system of experiment [3] is S. epidermidis strain B9470. Described as above. The format is cell-based, Staphylococcus epidermidis. To be noted: for CFU/mL, generation of persisters: Vancomycin 50X, Daptomycin 10X MIC; for CFU/mL, confirmation of persisters (regrown, re-exposed): head prints Vancomycin 100X, Daptomycin 50×. Here is the method: as §1, §2
The test system of experiment [4] is S. aureus USA300. As to the kind of experiment: Mouse model of S. aureus with mucin-enhanced virulence, survival. To be noted: S. aureus USA300 10^9 CFU ip, P128 […] ip, Vancomycin 27.5 mg/kg sc 2 doses, or both. The format is in vivo, BALB/c mice. As to the method:
Eight to nine weeks old female BALB/c mice were challenged intraperitoneally with 10^9 CFU of S. aureus USA300. At 2 hours post-infection, animals were treated with either P128 at 2.5 mg/kg intraperitoneally, or vancomycin at 27.5 mg/kg subcutaneously, or combination of both. Groups treated with only vancomycin or combination of P128 and vancomycin were administered with a second dose of vancomycin at 12 hours after the first treatment. At 72 hours post-infection, P128 and vancomycin yielded 56 and 44% survival, respectively.

Experiment [5] relates to S. epidermidis. Kind of experiment: MIC and checkerboard synergy (broth microdilution) on planktonic cells. The format is cell-based, Staphylococcus epidermidis. Here is the method: Bacterial cultures at a final cell number of 5×10^5 CFU/mL was added to wells of 96-well microtiter plates (precoated with 0.5% BSA), containing two-fold dilutions of P128 and the second drug in cation adjusted Mueller Hinton Broth (CAMHB). The plates were incubated at 37° C. for 24 h and the individual MICs and the combination MICs were read. The fractional inhibitory concentration index (FICI) was determined using the following equation: FICI=(MIC of drug A in the combination/MIC of drug A alone)+(MIC of drug B in the combination/MIC of drug B alone). The combination was considered to be synergistic when the FICI was ≤0.5; additive when FICI was 0.5-1.0; indifferent when FICI was 1-4 and antagonistic when FICI≥4.
S. epidermidis culture at a final cell number of 5×10^5 CFU/mL was added to wells of 96-well microtiter plates (precoated with 0.5% BSA), containing two-fold dilutions of P128 and either Daptomycin or Oxacillin in cation adjusted Mueller Hinton Broth (CAMHB). CAMHB was supplemented with 50 µg/mL Ca^++ for daptomycin assay. The plates were incubated at 37° C. for 24 h and the individual MICs and the combination MICs were read. The fractional inhibitory concentration index (FICI) was determined using the following equation: FICI=(MIC of drug A in the combination/MIC of drug A alone)+(MIC of drug B in the combination/MIC of drug B alone). The combination was considered to be synergistic when the FICI was ≤0.5; additive when FICI was between 0.5-1.0; indifferent when FICI was between 1-4 and antagonistic when FICI was ≥4. The experiments were performed in triplicate and repeated twice.
For orientation: Broth dilution looks for growth in wells or tubes with falling amounts of substance.

Experiment [6] concerns MRSA MW2 biofilm on catheter. Kind of experiment: In vivo biofilm on catheter implanted subcutaneously in neutropenic mice.
Procedure: Eight-nine week old female BALB/c mice 25 g were rendered neutropenic with cyclophosphamide and were operated under ketamine-xylazine anesthesia. A 1-cm incision was made in the dorsal neck surface by aseptic technique and subcutaneous pouch was created. Catheter segments of 1 cm length pre-incubated with MRSA MW2 suspension (6×10^3 CFUs/mL) for 4 hrs, were placed in the subcutaneous space and the wounds were closed with suture thereafter. As uninfected control, one group of mice were surgically operated and a sterile catheter segment was placed in the cavity. At 24 hours post-catheter implantation, mice were treated with P128 (800 μg per animal, subcutaneously) or with the placebo (saline). Treatments were given thrice a day at 2 hr intervals for three days and 1 hr after the last treatment, the catheters were removed, biofilms were harvested and CFUs recovered were plated on culture media and enumerated. Catheters from a subset of animals were stained with 0.1% safranin, (which stains the bacteria) for 5 min.
For evaluation of synergy with daptomycin, mouse model of biofilm described above was used with few modifications. Eight-nine week old female BALB/c mice 25 g were rendered neutropenic with cyclophosphamide and were operated under ketamine-xylazine anesthesia. A 1-cm incision was made in the dorsal neck surface by aseptic technique and subcutaneous pouch was created. Catheter segments measuring 1 cm were placed in the subcutaneous space, and the wounds closed with suture. At 72 hours post-implantation. MRSA MW2 bacterial inoculum (2.1×10^7 CFU per animal) was injected subcutaneously onto the catheter. At 24 hrs post-challenge, animals were treated with either P128 (800 μg per animal, subcutaneous), or daptomycin (12.5 mg/kg, subcutaneous) or a combination of both. Daptomycin was given once every day for three days whereas P128 was administered thrice a day at 2 hr interval for three days. 1 hr after the last treatment, animals were euthanized and catheters were collected and recovered CFUs were enumerated.
Biofilms were also visualized by staining the catheters with 0.1% safranin.
Where [7] appears, read: P128 800 μg per animal sc, thrice a day for three days.
Where [8] appears, read: Table VB1: pre-colonised catheter, P128 800 μg per dose sc, 3 doses/day for 3 days.

As for `CN[C@H](CC(C)C)C(=O)N[C@H]1C(=O)N[C@@H](CC(N)=O)C(=O)N[C@H]2C(=O)N[C@H]3C(=O)N[C@H](C(=O)N[C@H](C(=O)O)c4cc(O)cc(O)c4-c4cc3ccc4O)[C@H](O)c3ccc(c(Cl)c3)Oc3cc2cc(c3O[C@@H]2O[C@H](CO)[C@@H](O)[C@H](O)[C@H]2O[C@H]2C[C@](C)(N)[C@H](O)[C@H](C)O2)Oc2ccc(cc2Cl)[C@H]1O` [Vancomycin, vancomycin], the “Effect on catheter biofilm (safranin/SEM)” value in experiment [1] is listed as “minimal effect”. In addition, the “CFU/mL, generation of persisters” value in experiment [2] (B9377, 0 h) is recorded as 2.5 × 10^8 CFU/mL; in experiment [2] (B9377, 4 h), 8 × 10^6 CFU/mL; in experiment [2] (B9377, 8 h), 1.9 × 10^6 CFU/mL; in experiment [2] (B9377, 24 h), 1.1 × 10^5 CFU/mL; in experiment [2] (BK18, 0 h), 2 × 10^8 CFU/mL; in experiment [2] (BK18, 4 h), 1 × 10^7 CFU/mL. The “CFU/mL, generation of persisters” value in experiment [2] (BK18, 8 h) is 2 × 10^6 CFU/mL; in experiment [2] (BK18, 24 h), 4 × 10^5 CFU/mL; in experiment [3] (B9470, 0 h), 3.2 × 10^7 CFU/mL; in experiment [3] (B9470, 2 h) it was 1 × 10^6 CFU/mL; in experiment [3] (B9470, 4 h), 3 × 10^5 CFU/mL; in experiment [3] (B9470, 8 h), 9 × 10^3 CFU/mL. Further, in experiment [3] (B9470, 24 h), the “CFU/mL, generation of persisters” value was 3 × 10^4 CFU/mL. The “CFU/mL, confirmation of persisters (regrown, re-exposed)” value (shortened to “CFU/mL, confirmation of persisters”) in experiment [2] (B9377, 0 h) is reported as 1.5 × 10^8 CFU/mL; in experiment [2] (B9377, 4 h), 2 × 10^6 CFU/mL; in experiment [2] (B9377, 8 h) it was 2 × 10^6 CFU/mL; in experiment [2] (B9377, 24 h), 8 × 10^5 CFU/mL; in experiment [2] (BK18, 0 h), 1 × 10^8 CFU/mL; in experiment [2] (BK18, 4 h), 2.5 × 10^5 CFU/mL. In addition, the “CFU/mL, confirmation of persisters” value is given as 1 × 10^5 CFU/mL in experiment [2] (BK18, 8 h); 1 × 10^5 CFU/mL in experiment [2] (BK18, 24 h); 2 × 10^7 CFU/mL in experiment [3] (B9470, 0 h); 1 × 10^5 CFU/mL in experiment [3] (B9470, 2 h); 6 × 10^4 CFU/mL in experiment [3] (B9470, 4 h); 1.5 × 10^4 CFU/mL in experiment [3] (B9470, 8 h). The “CFU/mL, confirmation of persisters” value in experiment [3] (B9470, 24 h) is given as 5 × 10^3 CFU/mL. Further, the “Drop in CFU at the end of 4 h treatment” value in experiment [2] (generation of persisters) is reported as “Approximately two log drop in CFU”. For the same molecule, the entries for the “Survival at 72 h post infection” value in experiment [4] and in experiment [4] (listed as vancomycin) were 43% and 44%, respectively.

B1: P128: anti-staphylococcal chimeric protein: phage tail associated muralytic enzyme (TAME) cell wall-degrading region plus staphylococcus-specific binding region; SEQ ID NO: 1 (protein)
chain: MSLDSLKKYNGKLPKHDPSFVQPGNRHYKYQCTWYAYNRRGQLGIPVPLWGDAADWIGGAKGAGYGVGRTPKQGACVIWQRGVQGGSPQYGHVAFVEKVLDGGKKIFISEHNYATPNGYGTRTIDMSSAIGKNAQFIYDKKLETPNTGWKTNKYGTLYKSESASFTPNTDIITRTTGPFRSMPQSGVLKAGQTIHYDEVMKQDGHVWVGYTGNSGQRIYLPVRTWNKSTNTLGVLWGTIK
modifications: P128 chimera
For the molecule B1, the “MIC (drug alone)” value is 4 µg/mL in experiment [5] (S. epidermidis ATCC 12228); 32 µg/mL in experiment [5] (S. epidermidis B9467); 2 µg/mL in experiment [5] (S. epidermidis B9468); 8 µg/mL in experiment [5] (S. epidermidis B9470); 16 µg/mL and 8 µg/mL in experiment [5] (S. epidermidis B9472); 16 µg/mL in experiment [5] (S. epidermidis B9473). Besides, in experiment [5] (S. epidermidis strains of Tables 7 and 8), the “MIC over the strains” value lay within 2 to 32 µg/mL. In experiment [1], the “Effect on catheter biofilm (safranin/SEM)” value is recorded as “eradication of the biofilm”. Besides, the “Survival at 72 h post infection” value in experiment [4] stood at 56%. Besides, the “Reduction in CFUs compared to the control group” value in experiment [6] (setting [7]) is “greater than 1 log”. Besides, in experiment [6] (setting [7]), the “Safranin staining of catheters” value is “eradication of biofilm”. For the same molecule, the “Avg. CFU recovered from catheter biofilm” value in experiment [6] (setting [8]) is 2.8 CFU Log(10)/ml. Further, the “CFU recovered from catheter biofilm, individual animals” value in experiment [6] (setting [8]) was 4.15 CFU (Log10)/ml and 3.12 CFU (Log10)/ml and 1.00 CFU (Log10)/ml and Nil; in experiment [6] (Table VB2: Daptomycin 12.5 mg/kg sc 1 dose per day for 3 days, P128 800 μg per dose sc 3 doses/day for 3 days, or both), 2.5 CFU (Log10)/ml and 2.0 CFU (Log10)/ml and 2.7 CFU (Log10)/ml.
